Twelve compounds from patent publication US10669290B2, “Beta-lactamase inhibitors” (priority 2012, dated 2020) can be followed below.

SMILES strings stand for the structures. A value given as a limit tells only on which side of the number the result lay.

One assay concerns E. cl 144200 p99 AmpC. Put plainly: Broth microdilution MIC, E. cloacae 144200. Type of assay: cell-based. The note with it: Enterobacter cloacae; fixed ceftazidime 4 μg/mL, CAMHB, 16-20 hours 37° C.; read-out: MIC of exemplary compounds in presence of fixed β-lactams, Fixed CAZ, E. cl 144200 p99 AmpC. An outline of the steps: (§1)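 CAMHB; compound 32–0.25 μg/mL, 2-fold dilutions; β-lactam partner static at 4 μg/ml; CLSI inoculum from 3-5 h culture; 16-20 h, 37° C; visual MIC.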

The next assay concerns P. aerug. Ps296 VIM-2. Put plainly: Broth microdilution MIC, P. aeruginosa Ps296. Type of assay: cell-based. The conditions noted are these: Pseudomonas aeruginosa; fixed meropenem 4 μg/mL, CAMHB, 16-20 hours 37° C.; read-out: MIC of exemplary compounds in presence of fixed β-lactams, Fixed Mero, P. aerug. Ps296 VIM-2. The method in brief: as §1
The target of the next assay is T1, p99 AmpC (Enterobacter cloacae, UniProt P05364).
T1 construct: made in house; host or cells: E. coli BL21 (DE3)
Put plainly: β-Lactamase inhibition, p99 AmpC (nitrocefin substrate). Type of assay: biochemical. The conditions noted are these: nitrocefin 100 μM, 486 nm, 15 min preincubation 37° C., PBS pH 7.4; read-out: IC50 AmpC (Class C). As to the method: For SHV-5, Kpc-2, p99AmpC and OXA-1 β-lactamases, E. coli BL21 (DE3) bacterial cells carrying expression plasmids (expressed as native untagged proteins) for the individual β-lactamases were grown in 1 L of Superbroth (Teknova Inc. Hollister, Calif.) supplemented with 100 μg/ml kanamycin selection and 1×5052 (0.5% glycerol, 0.05% glucose and 0.2% α-lactose) at 35° C. for 18-20 hours. Cells were harvested by centrifugation (4,000×g, 4° C., 20 min), resuspended in 50 ml of 10 mM HEPES pH 7.5 ( 1/20 of the initial volume). The cells were lysed by sonication (5 pulses of 45 seconds) at 45 W on ice. The lysates were clarified by centrifugation at 10,000×g for 40 minutes at 4° C. Samples were diluted 5-fold in 50 mM sodium acetate pH 5.0, stored overnight at 4° C., after which they were centrifuged at 10,000×g for 30 minutes to clarify, and filtered through 0.45 µm filters. The samples were loaded onto a 5 ml Capto S sepharose cation exchange column (GE Healthcare) pre-equilibrated with 50 mM sodium acetate pH 5.0. The column was washed with 5 column volumes of 50 mM sodium acetate pH 5.0 to wash out unbound protein and a linear gradient of NaCl (0 to 500 mM) was used to elute the protein (over 16 CV) from the column. Fractions were assayed for β-lactamase activity using Centa (Calbiochem, Gibbstown, N.J.) or Nitrocefin (EMD Millipore chemicals, Darmstadt, Germany) as a reporter β-lactamase substrate for activity in the isolated fractions. Active fractions were pooled, concentrated and further purified by gel filtration chromatography on a Superdex 75 prep grade gel filtration column (GE Healthcare, Piscataway, N.J.) pre-equilibrated in 50 mM Hepes pH 7.5, 150 mM NaCl. Active fractions were pooled concentrated, quantitated by BCA protein determination (Thermo Scientific, Rockford, Ill.), dialyzed into PBS and frozen at −80° C. in 20% glycerol until use.
An equal volume of diluted enzyme stock was added, and the plates were incubated at 37° C. for 15 min. Nitrocefin was used as substrate for p99 AmpC, VIM-2 and OXA-1 and dispensed into each well at a final concentration of 100 μM. Absorbance at 486 nm was immediately monitored for 10 min using a Biotek Powerwave XS2 microplate spectrophotometer using the GEN5 software package (Biotek Instruments, Winooski Vt.). In an analogous fashion, imipenem was used as substrate for Kpc-2 and Cefotaxime was used for SHV-5, while changes in absorbance upon hydrolysis of the β-lactam ring were monitored at 300 nm and 260 nm respectively in UV-transparent 96-well microtiter assay plates. Maximum rates of hydrolysis were compared to those in control wells (without inhibitors), and percentages of enzyme inhibition were calculated for each concentration of inhibitor. The concentration of inhibitor needed to reduce the initial rate of hydrolysis of substrate by 50% (IC50) was calculated as the residual activity of β-lactamase at 486 nm using GraFit version 7 kinetics software package (Erithacus Software, Surrey, UK).
Using the methodology described above, examples of the current invention were evaluated for their ability to inhibit β-lactamase enzymes from all four Ambler classifications (A through D). […] NT=Not tested.

For the next assay, the system named is K.P. A-1797 KPC-2 VIM-4. Put plainly: Broth microdilution MIC, K. pneumoniae A-1797. It is filed as cell-based. The note with it: Klebsiella pneumoniae; fixed meropenem 4 μg/mL, CAMHB, 16-20 hours 37° C.; read-out: MIC of exemplary compounds in presence of fixed β-lactams, Fixed Mero, K.P. A-1797 KPC-2 VIM-4.
Another assay concerns K.P. 156319 KPC-3. Put plainly: Broth microdilution MIC, K. pneumoniae 156319. It is filed as cell-based. The note with it: Klebsiella pneumoniae; fixed meropenem 4 μg/mL, CAMHB, 16-20 hours 37° C.; read-out: MIC of exemplary compounds in presence of fixed β-lactams, Fixed Mero, K.P. 156319 KPC-3.
The test system of another assay is S. aureus MSSA-7 PC-1. Put plainly: Broth microdilution MIC, S. aureus MSSA-7. Type of assay: cell-based. The note with it: Staphylococcus aureus, fixed piperacillin 4 μg/mL, CAMHB, 16-20 hours 37° C., read-out: MIC of exemplary compounds in presence of fixed β-lactams, Fixed Pip, S. aureus MSSA-7 PC-1. On the technique in general: In broth dilution the organism is exposed to a series of concentrations in liquid medium.

Another assay deals with E. coli ESBL4 CTX-M-15. Put plainly: Broth microdilution MIC, E. coli ESBL4. Type of assay: cell-based. The note with it: Escherichia coli, ESBL4CTXM15; fixed ceftazidime 4 μg/mL, CAMHB, 16-20 hours 37° C.; read-out: MIC of exemplary compounds in presence of fixed β-lactams, Fixed CAZ, E. coli ESBL4 CTX-M-15. An outline of the steps:
as §1

T1 sequence (P05364 21-381): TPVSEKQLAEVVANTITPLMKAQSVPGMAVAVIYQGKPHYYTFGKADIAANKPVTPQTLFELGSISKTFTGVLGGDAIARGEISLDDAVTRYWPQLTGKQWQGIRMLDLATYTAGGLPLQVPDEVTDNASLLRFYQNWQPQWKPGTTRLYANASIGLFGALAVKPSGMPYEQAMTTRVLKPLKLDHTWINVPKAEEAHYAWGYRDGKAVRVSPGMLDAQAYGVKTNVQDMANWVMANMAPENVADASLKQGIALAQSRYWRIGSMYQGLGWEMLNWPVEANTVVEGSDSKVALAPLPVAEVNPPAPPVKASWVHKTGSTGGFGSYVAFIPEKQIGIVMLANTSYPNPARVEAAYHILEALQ

Turning to `N=C(N)N1CCN([C@H]2CC[C@H](CC(=O)N[C@H]3Cc4cccc(C(=O)O)c4OB3O)CC2)CC1` [Example 24, (R)-3-(2-(trans-4-(4-carbamimidoylpiperazin-1-yl)cyclohexyl)acetamido)-2-hydroxy-3,4-dihydro-2H-benzo[e][1,2]oxaborinine-8-carboxylic acid], the MIC (in general, the smallest concentration in the dilution series that meets the test's criterion for growth inhibition) with E. cl 144200 p99 AmpC was below 4 µg/mL; in the assay with P. aerug. Ps296 VIM-2, 8 to 32 µg/mL; in the assay with K.P. A-1797 KPC-2 VIM-4 it was below 4 µg/mL; with K.P. 156319 KPC-3, below 4 µg/mL; in the assay with S. aureus MSSA-7 PC-1, below 4 µg/mL; in the assay on E. coli ESBL4 CTX-M-15, below 4 µg/mL. Moreover, at p99 AmpC, the IC50 (as a rule, the concentration needed to halve the response being measured) is below 100 nM.

As for `NC1CN(C2CCC(CC(=O)N[C@H]3Cc4cccc(C(=O)O)c4OB3O)CC2)C1` (stereo partly drawn) [Example 35, (3R)-3-(2-(4-(3-aminoazetidin-1-yl)cyclohexyl)acetamido)-2-hydroxy-3,4-dihydro-2H-benzo[e][1,2]oxaborinine-8-carboxylic acid], the MIC in the assay with E. cl 144200 p99 AmpC is below 4 µg/mL; with P. aerug. Ps296 VIM-2, below 4 µg/mL; in the assay on K.P. A-1797 KPC-2 VIM-4 it was 8 to 32 µg/mL; in the assay on K.P. 156319 KPC-3, below 4 µg/mL; in the assay with S. aureus MSSA-7 PC-1 it was below 4 µg/mL; with E. coli ESBL4 CTX-M-15, below 4 µg/mL. Also, the half-inhibitory concentration (IC50) at p99 AmpC is below 100 nM.

As for `O=C(C[C@H]1CC[C@H](NCc2cnc[nH]2)CC1)N[C@H]1Cc2cccc(C(=O)O)c2OB1O` [Example 70, (R)-3-(2-(trans-4-((1H-imidazol-5-yl)methylamino)cyclohexyl)acetamido)-2-hydroxy-3,4-dihydro-2H-benzo[e][1,2]oxaborinine-8-carboxylic acid], the MIC in the assay with E. cl 144200 p99 AmpC was below 4 µg/mL; in the assay on P. aerug. Ps296 VIM-2, below 4 µg/mL; in the assay with K.P. A-1797 KPC-2 VIM-4 it was 8 to 32 µg/mL; in the assay with K.P. 156319 KPC-3 it was below 4 µg/mL; in the assay on S. aureus MSSA-7 PC-1, below 4 µg/mL; with E. coli ESBL4 CTX-M-15, below 4 µg/mL.

Consider `CC(C)NCCN[C@H]1CC[C@H](CC(=O)N[C@H]2Cc3cccc(C(=O)O)c3OB2O)CC1` [Example 71, (R)-2-hydroxy-3-(2-(trans-4-(2-(isopropylamino)ethylamino)cyclohexyl)acetamido)-3,4-dihydro-2H-benzo[e][1,2]oxaborinine-8-carboxylic acid], for which the MIC in the assay with E. cl 144200 p99 AmpC, in the assay with P. aerug. Ps296 VIM-2, in the assay on K.P. A-1797 KPC-2 VIM-4, in the assay with K.P. 156319 KPC-3, in the assay on S. aureus MSSA-7 PC-1 and in the assay on E. coli ESBL4 CTX-M-15 was below 4 µg/mL throughout.

For the compound `O=C(C[C@H]1CC[C@H](NCCNc2ncccn2)CC1)N[C@H]1Cc2cccc(C(=O)O)c2OB1O` [Example 72], the MIC was below 4 µg/mL in the assay on E. cl 144200 p99 AmpC; below 4 µg/mL with P. aerug. Ps296 VIM-2; 8 to 32 µg/mL in the assay on K.P. A-1797 KPC-2 VIM-4; below 4 µg/mL in the assay with K.P. 156319 KPC-3; below 4 µg/mL in the assay on S. aureus MSSA-7 PC-1; below 4 µg/mL with E. coli ESBL4 CTX-M-15.

Turning to `O=C(C[C@H]1CC[C@H](NCCNC2CCCC2)CC1)N[C@H]1Cc2cccc(C(=O)O)c2OB1O` [Example 73, (R)-3-(2-(trans-4-(2-(cyclopentylamino)ethylamino)cyclohexyl)acetamido)-2-hydroxy-3,4-dihydro-2H-benzo[e][1,2]oxaborinine-8-carboxylic acid], the MIC with E. cl 144200 p99 AmpC, with P. aerug. Ps296 VIM-2, in the assay on K.P. A-1797 KPC-2 VIM-4, in the assay with K.P. 156319 KPC-3, in the assay on S. aureus MSSA-7 PC-1 and in the assay with E. coli ESBL4 CTX-M-15 was below 4 µg/mL each time.

For `O=C(C[C@H]1CC[C@H](NCCNCC2CC2)CC1)N[C@H]1Cc2cccc(C(=O)O)c2OB1O` [Example 74, (R)-3-(2-(trans-4-(2-(cyclopropylmethylamino)ethylamino)cyclohexyl)acetamido)-2-hydroxy-3,4-dihydro-2H-benzo[e][1,2]oxaborinine-8-carboxylic acid], the MIC in the assay with E. cl 144200 p99 AmpC, with P. aerug. Ps296 VIM-2, in the assay on K.P. A-1797 KPC-2 VIM-4, in the assay on K.P. 156319 KPC-3, in the assay on S. aureus MSSA-7 PC-1 and in the assay on E. coli ESBL4 CTX-M-15 was below 4 µg/mL throughout.

For the compound `O=C(C[C@H]1CC[C@H](NCCN(CC2CC2)CC2CC2)CC1)N[C@H]1Cc2cccc(C(=O)O)c2OB1O` [Example 75, (R)-3-(2-(trans-4-(2-(bis(cyclopropylmethyl)amino)ethylamino)cyclohexyl)acetamido)-2-hydroxy-3,4-dihydro-2H-benzo[e][1,2]oxaborinine-8-carboxylic acid], the MIC in the assay with E. cl 144200 p99 AmpC, in the assay on P. aerug. Ps296 VIM-2, in the assay on K.P. A-1797 KPC-2 VIM-4, in the assay on K.P. 156319 KPC-3, in the assay with S. aureus MSSA-7 PC-1 and in the assay on E. coli ESBL4 CTX-M-15 was below 4 µg/mL throughout.

In the case of `NCCC(N)[C@H]1CC[C@H](CC(=O)N[C@H]2Cc3cccc(C(=O)O)c3OB2O)CC1` (stereo partly drawn) [Example 76, (R)-3-(2-(trans-4-(1,3-diaminopropyl)cyclohexyl)acetamido)-2-hydroxy-3,4-dihydro-2H-benzo[e][1,2]oxaborinine-8-carboxylic acid], the MIC is below 4 µg/mL in the assay on E. cl 144200 p99 AmpC; 8 to 32 µg/mL in the assay on P. aerug. Ps296 VIM-2; below 4 µg/mL in the assay with K.P. A-1797 KPC-2 VIM-4; below 4 µg/mL in the assay on K.P. 156319 KPC-3; below 4 µg/mL in the assay on S. aureus MSSA-7 PC-1; below 4 µg/mL with E. coli ESBL4 CTX-M-15.

Regarding `NCC(N)[C@H]1CC[C@H](CC(=O)N[C@H]2Cc3cccc(C(=O)O)c3OB2O)CC1` (stereo partly drawn) [Example 77, (R)-3-(2-(trans-4-(1,2-diaminoethyl)cyclohexyl)acetamido)-2-hydroxy-3,4-dihydro-2H-benzo[e][1,2]oxaborinine-8-carboxylic acid], the minimal inhibitory concentration (MIC) with E. cl 144200 p99 AmpC is below 4 µg/mL; in the assay with P. aerug. Ps296 VIM-2, below 4 µg/mL; with K.P. A-1797 KPC-2 VIM-4 it was 8 to 32 µg/mL; in the assay with K.P. 156319 KPC-3 it was below 4 µg/mL; in the assay with S. aureus MSSA-7 PC-1, below 4 µg/mL; with E. coli ESBL4 CTX-M-15, below 4 µg/mL.

For `CCNCCN[C@H]1CC[C@H](CC(=O)N[C@H]2Cc3cccc(C(=O)O)c3OB2O)CC1` [Example 78, (R)-3-(2-(trans-4-(2-(ethylamino)ethylamino)cyclohexyl)acetamido)-2-hydroxy-3,4-dihydro-2H-benzo[e][1,2]oxaborinine-8-carboxylic acid], the MIC in the assay on E. cl 144200 p99 AmpC, in the assay with P. aerug. Ps296 VIM-2, with K.P. A-1797 KPC-2 VIM-4, with K.P. 156319 KPC-3, with S. aureus MSSA-7 PC-1 and in the assay on E. coli ESBL4 CTX-M-15 was below 4 µg/mL in each case.

For `CN(C)CCN[C@H]1CC[C@H](CC(=O)N[C@H]2Cc3cccc(C(=O)O)c3OB2O)CC1` [Example 79, (R)-3-(2-(trans-4-(2-(dimethylamino)ethylamino)cyclohexyl)acetamido)-2-hydroxy-3,4-dihydro-2H-benzo[e][1,2]oxaborinine-8-carboxylic acid], the MIC with E. cl 144200 p99 AmpC, in the assay on P. aerug. Ps296 VIM-2, in the assay with K.P. A-1797 KPC-2 VIM-4, with K.P. 156319 KPC-3, with S. aureus MSSA-7 PC-1 and in the assay on E. coli ESBL4 CTX-M-15 was below 4 µg/mL each time.
